For 1 compound, EC50 results are on record in article PMC2151634 (The Journal of General Physiology, 2007).

The experiment addresses T1, P2X2 receptor (Rattus norvegicus, UniProt P49653).
T1 sequence (P49653 1-472): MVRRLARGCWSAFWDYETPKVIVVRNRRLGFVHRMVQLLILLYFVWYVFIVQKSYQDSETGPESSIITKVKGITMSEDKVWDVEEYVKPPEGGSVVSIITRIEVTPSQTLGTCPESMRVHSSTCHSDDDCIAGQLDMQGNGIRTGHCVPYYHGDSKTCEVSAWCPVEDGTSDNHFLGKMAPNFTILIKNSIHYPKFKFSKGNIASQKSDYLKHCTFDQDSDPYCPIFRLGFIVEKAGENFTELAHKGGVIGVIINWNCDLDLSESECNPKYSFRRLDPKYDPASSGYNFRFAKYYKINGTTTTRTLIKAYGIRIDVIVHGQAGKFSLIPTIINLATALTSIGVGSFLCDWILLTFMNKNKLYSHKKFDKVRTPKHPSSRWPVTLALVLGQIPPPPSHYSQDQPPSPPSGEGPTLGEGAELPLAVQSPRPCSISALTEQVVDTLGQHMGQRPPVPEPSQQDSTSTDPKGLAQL
In words: outside-out patch clamp, peak current, 2-s ATP pulses. Type of experiment: cell-based.

In turn, `Nc1ncnc2c1ncn2[C@@H]1O[C@H](COP(=O)(O)OP(=O)(O)OP(=O)(O)O)[C@@H](O)[C@H]1O` [ATP] returned an EC50 of 9.8 µM.
